For nine compounds, GI50 and TGI results are on record in PubChem BioAssay (NCI).

Among the test systems are EKVX NSCLC; SR leukemia; MDA-MB-435; SW-620 colon; CAKI-1 renal; MCF7 breast; OVCAR-5 ovarian; T-47D breast; RPMI-8226 leukemia; NCI-H226 lung.
Common to all, as to assay: NCI anticancer screen, dose series, 48 h

SMILES strings stand for the structures.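 Assay format: 96-well plates, 48-hour exposure. GI50: concentration for 50% inhibition of growth. Definition used: TGI = concentration required for complete inhibition of growth.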

As for `CNC(=O)CCN1CCN(CC/C=C2\c3ccccc3Sc3ccc(Cl)cc32)CC1`, the GI50 in the assay on EKVX NSCLC is 14.5 µM; in the assay on SR leukemia it was 4.19 µM; in the assay with MDA-MB-435, 1.96 µM; with SW-620 colon it was 9.18 µM; in the assay with CAKI-1 renal it was 3.42 µM; in the assay with MCF7 breast, 4.91 µM. Further, the GI50 in the assay with OVCAR-5 ovarian is 22.6 µM; in the assay with T-47D breast, 9.21 µM; in the assay with RPMI-8226 leukemia, 3.65 µM; in the assay with NCI-H226 lung it was 19 µM. For the same compound, the TGI in the assay with EKVX NSCLC was found to be 30.6 µM; in the assay with SR leukemia, 18.1 µM; with MDA-MB-435, 4.91 µM; with SW-620 colon, 23.6 µM; in the assay on CAKI-1 renal, 19.7 µM; with MCF7 breast, 18.9 µM. Also, the TGI in the assay on OVCAR-5 ovarian came to 41.2 µM; in the assay with T-47D breast it was 26.5 µM; with RPMI-8226 leukemia, 18.2 µM; in the assay with NCI-H226 lung, 37.9 µM.
Consider `CCSC[C@@H]1C[C@](O)(c2ccccc2)[C@@H](c2ccccc2)O1`, for which the GI50 with EKVX NSCLC was 59.2 µM; with SR leukemia, under 0.136 µM; in the assay on MDA-MB-435 it was over 94.6 µM; with SW-620 colon it was over 100 µM; in the assay with CAKI-1 renal, over 83.8 µM; in the assay on MCF7 breast, 74.6 µM. The GI50 in the assay with OVCAR-5 ovarian was over 100 µM; in the assay with T-47D breast, 49 µM; with RPMI-8226 leukemia, 28.7 µM; in the assay with NCI-H226 lung, over 77.1 µM. Besides, the TGI in the assay on EKVX NSCLC was over 100 µM; in the assay on SR leukemia, 9.3 µM; in the assay on MDA-MB-435 it was over 100 µM; in the assay with SW-620 colon, over 100 µM; with CAKI-1 renal, over 100 µM; in the assay on MCF7 breast, over 100 µM. Further, the TGI in the assay on OVCAR-5 ovarian, in the assay with T-47D breast, in the assay on RPMI-8226 leukemia and in the assay with NCI-H226 lung was over 100 µM throughout.
Consider `CC[C@H](C)[C@H](NC(=O)C12C3C4C1C1C2C3C41NC)C(=O)N(C)[C@H](C[C@@H](OC(C)=O)c1nc(C(=O)N[C@@H](Cc2ccccc2)C[C@H](C)C(=O)OC)cs1)C(C)C` (stereo not given in full), for which the GI50 in the assay with EKVX NSCLC is 1.67 µM; with SR leukemia, 0.0469 µM; in the assay with MDA-MB-435, 0.0489 µM; in the assay on SW-620 colon, 0.459 µM; in the assay on CAKI-1 renal it was 5.57 µM; in the assay on MCF7 breast it was 0.0552 µM. Also, the GI50 with OVCAR-5 ovarian was over 7.57 µM; in the assay on T-47D breast, over 14.3 µM; with RPMI-8226 leukemia, 0.143 µM; in the assay with NCI-H226 lung, over 7.85 µM. Besides, the TGI in the assay with EKVX NSCLC is over 14.3 µM; with SR leukemia, over 14.3 µM; in the assay on MDA-MB-435, 0.377 µM; in the assay on SW-620 colon, over 14.3 µM; in the assay on CAKI-1 renal, over 14.3 µM; in the assay on MCF7 breast, over 14.3 µM. The TGI in the assay with OVCAR-5 ovarian is over 14.3 µM; with T-47D breast, over 14.3 µM; with RPMI-8226 leukemia, over 6.29 µM; in the assay with NCI-H226 lung, over 14.3 µM.
`OCCCN=C1CCCCC1`: the TGI with EKVX NSCLC, with SR leukemia, in the assay with MDA-MB-435, in the assay with SW-620 colon, with CAKI-1 renal and with MCF7 breast was over 100 µM in each case. For the same compound, the TGI in the assay with OVCAR-5 ovarian, in the assay with T-47D breast, in the assay with RPMI-8226 leukemia and in the assay with NCI-H226 lung was over 100 µM each time.
Take `COC1C(OC(=O)c2ccc(C)[nH]2)C(O)C(Oc2ccc3c(O)c(NC(=O)c4ccc(O)c(CC=C(C)C)c4)c(=O)oc3c2Cl)OC1(C)C` (stereo not given): the TGI is 61.9 µM in the assay with EKVX NSCLC; 56.9 µM in the assay on SR leukemia; over 100 µM in the assay with MDA-MB-435; 38 µM with SW-620 colon; 36.2 µM in the assay on CAKI-1 renal; 54.2 µM in the assay on MCF7 breast. For the same compound, the TGI was 33.2 µM in the assay with OVCAR-5 ovarian, 36.5 µM in the assay on T-47D breast, 30.4 µM with RPMI-8226 leukemia and 36.7 µM in the assay on NCI-H226 lung.
With `O=C(Nc1ccn(C2CC(O)C(COC(c3ccccc3)(c3ccccc3)c3ccccc3)O2)c(=O)n1)c1ccccc1` (stereo not given), the TGI amounted to 16.2 µM in the assay with EKVX NSCLC; 5.34 µM in the assay with SR leukemia; 5.68 µM with MDA-MB-435; 5.46 µM in the assay with SW-620 colon; 18.4 µM in the assay on CAKI-1 renal; 8.39 µM in the assay with MCF7 breast. Also, the TGI with OVCAR-5 ovarian came to 3.53 µM; with T-47D breast it was 16.7 µM; with RPMI-8226 leukemia, 5.2 µM; with NCI-H226 lung, 35.4 µM.
For the compound `Cc1cc(C)c2nc3c(c(C(O)C4CCCCN4)c2c1)CC/C3=C\c1ccc(Cl)cc1` (stereo not given), the TGI with EKVX NSCLC, with SR leukemia, in the assay with MDA-MB-435, in the assay on SW-620 colon, in the assay on CAKI-1 renal and in the assay with MCF7 breast was over 100 µM throughout. The TGI in the assay on OVCAR-5 ovarian, in the assay on T-47D breast, in the assay on RPMI-8226 leukemia and in the assay with NCI-H226 lung was over 100 µM in each case.
Regarding `O=c1[nH]c2cc(Cl)ccc2nc1/C(=N\Nc1ccccc1)C(O)c1ccc2c(c1)OCO2` (stereo not given), the TGI in the assay on EKVX NSCLC, in the assay with SR leukemia, in the assay on MDA-MB-435, with SW-620 colon, with CAKI-1 renal and in the assay on MCF7 breast was over 100 µM in each case. The TGI in the assay on OVCAR-5 ovarian, in the assay on T-47D breast, in the assay on RPMI-8226 leukemia and in the assay on NCI-H226 lung was over 100 µM each time.
Turning to `COc1ccc2nc3ccccc3c(NCCNCCO)c2c1`, the GI50 is 1.43 µM in the assay on EKVX NSCLC; 0.214 µM in the assay with SR leukemia; 0.474 µM in the assay with MDA-MB-435; 0.362 µM with SW-620 colon; 1.22 µM in the assay on CAKI-1 renal; 0.363 µM with MCF7 breast. The GI50 is 1.18 µM with OVCAR-5 ovarian, 0.673 µM in the assay with T-47D breast, 0.406 µM in the assay on RPMI-8226 leukemia and 0.947 µM in the assay on NCI-H226 lung. Moreover, the TGI in the assay on EKVX NSCLC was 7.32 µM; with SR leukemia it was 1.33 µM; in the assay on MDA-MB-435, 1.83 µM; in the assay with SW-620 colon it was 3.66 µM; with CAKI-1 renal, 6.5 µM; with MCF7 breast, 7.33 µM. The TGI came to 8.85 µM in the assay on OVCAR-5 ovarian, 6.71 µM in the assay with T-47D breast, 2.73 µM in the assay with RPMI-8226 leukemia and 3.38 µM in the assay with NCI-H226 lung.
